Laboratory results reported in patent US20110039721A1, “METHOD FOR PREDICTION ABOUT CARCINOGENICITY OF SUBSTANCE IN RODENT” (Chemicals Evaluation and Research Institute, priority 2007, published 2011).

Columns and labels:
[1] = test system: mRNA expressed from the genes (A) to (D) in rat liver; experiment: Behavior of genes (mRNA expression level, oligo-DNA microarray) in rat liver after 28-day oral administration; type: in vivo; conditions: mRNA vs vehicle control group; for Behavior of gene caused by administration of chemical substance, Gene No. 4846 / Behavior of gene caused by administration of chemical substance, Gene No. 2026 / Behavior of gene caused by administration of chemical substance, Gene No. 4218 / Behavior of gene caused by administration of chemical substance, Gene No. 6182 / Behavior of gene caused by administration of chemical substance, Gene No. 5600: gene group (A); for Behavior of gene caused by administration of chemical substance, Gene No. 4846: Unigene No. Rn.144554; for Behavior of gene caused by administration of chemical substance, Gene No. 2026 / Behavior of gene caused by administration of chemical substance, Gene No. 4218: Unigene No. Rn.167075; for Behavior of gene caused by administration of chemical substance, Gene No. 6182: Unigene No. Rn.5834; for Behavior of gene caused by administration of chemical substance, Gene No. 5600: Unigene No. Rn.9836; for Behavior of gene caused by administration of chemical substance, Gene No. 1494 / Behavior of gene caused by administration of chemical substance, Gene No. 2045 / Behavior of gene caused by administration of chemical substance, Gene No. 2203: gene group (B); for Behavior of gene caused by administration of chemical substance, Gene No. 1494: Unigene No. Rn.1430; for Behavior of gene caused by administration of chemical substance, Gene No. 2045: Unigene No. Rn.19329; for Behavior of gene caused by administration of chemical substance, Gene No. 2203: Unigene No. Rn.21240; for Behavior of gene caused by administration of chemical substance, Gene No. 533 / Behavior of gene caused by administration of chemical substance, Gene No. 725 / Behavior of gene caused by administration of chemical substance, Gene No. 1163 / Behavior of gene caused by administration of chemical substance, Gene No. 4973 / Behavior of gene caused by administration of chemical substance, Gene No. 4095 / Behavior of gene caused by administration of chemical substance, Gene No. 1334 / Behavior of gene caused by administration of chemical substance, Gene No. 6620 / Behavior of gene caused by administration of chemical substance, Gene No. 6303 / Behavior of gene caused by administration of chemical substance, Gene No. 5878 / Behavior of gene caused by administration of chemical substance, Gene No. 1131 / Behavior of gene caused by administration of chemical substance, Gene No. 1562 / Behavior of gene caused by administration of chemical substance, Gene No. 1741 / Behavior of gene caused by administration of chemical substance, Gene No. 893 / Behavior of gene caused by administration of chemical substance, Gene No. 6026 / Behavior of gene caused by administration of chemical substance, Gene No. 154 / Behavior of gene caused by administration of chemical substance, Gene No. 1993 / Behavior of gene caused by administration of chemical substance, Gene No. 813 / Behavior of gene caused by administration of chemical substance, Gene No. 2494 / Behavior of gene caused by administration of chemical substance, Gene No. 2546 / Behavior of gene caused by administration of chemical substance, Gene No. 3776 / Behavior of gene caused by administration of chemical substance, Gene No. 3929 / Behavior of gene caused by administration of chemical substance, Gene No. 1119 / Behavior of gene caused by administration of chemical substance, Gene No. 6742 / Behavior of gene caused by administration of chemical substance, Gene No. 5634: gene group (C); for Behavior of gene caused by administration of chemical substance, Gene No. 533: Unigene No. Rn.106184; for Behavior of gene caused by administration of chemical substance, Gene No. 725: Unigene No. Rn.108075; for Behavior of gene caused by administration of chemical substance, Gene No. 1163: Unigene No. Rn.11766; for Behavior of gene caused by administration of chemical substance, Gene No. 4973: Unigene No. Rn.118529; for Behavior of gene caused by administration of chemical substance, Gene No. 4095: Unigene No. Rn.119024; for Behavior of gene caused by administration of chemical substance, Gene No. 1334 / Behavior of gene caused by administration of chemical substance, Gene No. 6620: Unigene No. Rn.120914; for Behavior of gene caused by administration of chemical substance, Gene No. 6303: Unigene No. Rn.123063; for Behavior of gene caused by administration of chemical substance, Gene No. 5878: Unigene No. Rn.143213; for Behavior of gene caused by administration of chemical substance, Gene No. 1131: Unigene No. Rn.144946; for Behavior of gene caused by administration of chemical substance, Gene No. 1562: Unigene No. Rn.14744; for Behavior of gene caused by administration of chemical substance, Gene No. 1741: Unigene No. Rn.1647; for Behavior of gene caused by administration of chemical substance, Gene No. 893: Unigene No. Rn.164817; for Behavior of gene caused by administration of chemical substance, Gene No. 6026: Unigene No. Rn.167685; for Behavior of gene caused by administration of chemical substance, Gene No. 154: Unigene No. Rn.185941; for Behavior of gene caused by administration of chemical substance, Gene No. 1993: Unigene No. Rn.18728; for Behavior of gene caused by administration of chemical substance, Gene No. 813: Unigene No. Rn.201760; for Behavior of gene caused by administration of chemical substance, Gene No. 2494: Unigene No. Rn.23969; for Behavior of gene caused by administration of chemical substance, Gene No. 2546: Unigene No. Rn.24561; for Behavior of gene caused by administration of chemical substance, Gene No. 3776: Unigene No. Rn.43232; for Behavior of gene caused by administration of chemical substance, Gene No. 3929: Unigene No. Rn.4620; for Behavior of gene caused by administration of chemical substance, Gene No. 1119: Unigene No. Rn.9757; for Behavior of gene caused by administration of chemical substance, Gene No. 6742: Unigene No. Rn.9779; for Behavior of gene caused by administration of chemical substance, Gene No. 5634: Unigene No. Rn.9862; for Behavior of gene caused by administration of chemical substance, Gene No. 5726: gene group (D), Unigene No. Rn.9939
In short: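 Oral gavage, once daily × 28 days; male F344 SPF rats, 5 wk, n=4/group; vehicle controls given equal solvent volume. Liver excised day 28, total RNA purified. Significance: ≥1.5× or ≤1/1.5 of vehicle, direction concordant with other carcinogens.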

liver = conditions: in vivo; cited from earlier work
rodent = conditions: in vivo; cited from earlier work

In the case of Cc1cccc(N=Nc2ccc(N(C)C)cc2)c1 [TS076, 3′-Methyl-4-dimethylaminoazobenzene], the “Behavior of gene caused by administration of chemical substance, Gene No. 4846” value [1] is reported as “+”, the “Behavior of gene caused by administration of chemical substance, Gene No. 2026” value [1] is reported as “+” and the “Behavior of gene caused by administration of chemical substance, Gene No. 4218” value [1] is reported as “+”. The “Behavior of gene caused by administration of chemical substance, Gene No. 6182” value [1] was “+”, the “Behavior of gene caused by administration of chemical substance, Gene No. 5600” value [1] was “+” and the “Behavior of gene caused by administration of chemical substance, Gene No. 1494” value [1] was “+”. The “Behavior of gene caused by administration of chemical substance, Gene No. 2045” value [1] was “+”, the “Behavior of gene caused by administration of chemical substance, Gene No. 2203” value [1] was “−” and the “Behavior of gene caused by administration of chemical substance, Gene No. 533” value [1] was “+”. The “Behavior of gene caused by administration of chemical substance, Gene No. 725” value [1] was “+”, the “Behavior of gene caused by administration of chemical substance, Gene No. 1163” value [1] was “−” and the “Behavior of gene caused by administration of chemical substance, Gene No. 4973” value [1] was “+”. For the same compound, the “Behavior of gene caused by administration of chemical substance, Gene No. 4095” value [1] was “+”, the “Behavior of gene caused by administration of chemical substance, Gene No. 1334” value [1] was “−” and the “Behavior of gene caused by administration of chemical substance, Gene No. 6620” value [1] was “−”. The “Behavior of gene caused by administration of chemical substance, Gene No. 6303” value [1] was “+”, the “Behavior of gene caused by administration of chemical substance, Gene No. 5878” value [1] was “−” and the “Behavior of gene caused by administration of chemical substance, Gene No. 1131” value [1] was “−”. The “Behavior of gene caused by administration of chemical substance, Gene No. 1562” value [1] was “+”, the “Behavior of gene caused by administration of chemical substance, Gene No. 1741” value [1] was “+” and the “Behavior of gene caused by administration of chemical substance, Gene No. 893” value [1] was “−”. For the same compound, the “Behavior of gene caused by administration of chemical substance, Gene No. 6026” value [1] was “−”, the “Behavior of gene caused by administration of chemical substance, Gene No. 154” value [1] was “+” and the “Behavior of gene caused by administration of chemical substance, Gene No. 1993” value [1] was “+”. The “Behavior of gene caused by administration of chemical substance, Gene No. 813” value [1] was “−”, the “Behavior of gene caused by administration of chemical substance, Gene No. 2494” value [1] was “−” and the “Behavior of gene caused by administration of chemical substance, Gene No. 2546” value [1] was “−”. The “Behavior of gene caused by administration of chemical substance, Gene No. 3776” value [1] was “−”, the “Behavior of gene caused by administration of chemical substance, Gene No. 3929” value [1] was “−” and the “Behavior of gene caused by administration of chemical substance, Gene No. 1119” value [1] was “−”. The “Behavior of gene caused by administration of chemical substance, Gene No. 6742” value [1] was “−”, the “Behavior of gene caused by administration of chemical substance, Gene No. 5634” value [1] was “−” and the “Behavior of gene caused by administration of chemical substance, Gene No. 5726” value [1] was “−”. The Liver carcinogenicity (liver) was “Cr+” and the Carcinogenicity (rodent) was “C+”.
For CN(C)c1ccc(N=Nc2ccccc2)cc1 [TS077, 4-Dimethylaminoazobenzene], the “Behavior of gene caused by administration of chemical substance, Gene No. 4846” value [1] was “−”, the “Behavior of gene caused by administration of chemical substance, Gene No. 2026” value [1] was “−” and the “Behavior of gene caused by administration of chemical substance, Gene No. 4218” value [1] was “−”. For the same compound, the “Behavior of gene caused by administration of chemical substance, Gene No. 6182” value [1] was “+”, the “Behavior of gene caused by administration of chemical substance, Gene No. 5600” value [1] was “−” and the “Behavior of gene caused by administration of chemical substance, Gene No. 1494” value [1] was “+”. The “Behavior of gene caused by administration of chemical substance, Gene No. 2045” value [1] was “+”, the “Behavior of gene caused by administration of chemical substance, Gene No. 2203” value [1] was “−” and the “Behavior of gene caused by administration of chemical substance, Gene No. 533” value [1] was “−”. The “Behavior of gene caused by administration of chemical substance, Gene No. 725” value [1] was “−”, the “Behavior of gene caused by administration of chemical substance, Gene No. 1163” value [1] was “−” and the “Behavior of gene caused by administration of chemical substance, Gene No. 4973” value [1] was “−”. The “Behavior of gene caused by administration of chemical substance, Gene No. 4095” value [1] was “−”, the “Behavior of gene caused by administration of chemical substance, Gene No. 1334” value [1] was “−” and the “Behavior of gene caused by administration of chemical substance, Gene No. 6620” value [1] was “−”. The “Behavior of gene caused by administration of chemical substance, Gene No. 6303” value [1] was “+”, the “Behavior of gene caused by administration of chemical substance, Gene No. 5878” value [1] was “−” and the “Behavior of gene caused by administration of chemical substance, Gene No. 1131” value [1] was “−”. For the same compound, the “Behavior of gene caused by administration of chemical substance, Gene No. 1562” value [1] was “−”, the “Behavior of gene caused by administration of chemical substance, Gene No. 1741” value [1] was “−” and the “Behavior of gene caused by administration of chemical substance, Gene No. 893” value [1] was “−”. For the same compound, the “Behavior of gene caused by administration of chemical substance, Gene No. 6026” value [1] was “+”, the “Behavior of gene caused by administration of chemical substance, Gene No. 154” value [1] was “−” and the “Behavior of gene caused by administration of chemical substance, Gene No. 1993” value [1] was “−”. The “Behavior of gene caused by administration of chemical substance, Gene No. 813” value [1] was “−”, the “Behavior of gene caused by administration of chemical substance, Gene No. 2494” value [1] was “−” and the “Behavior of gene caused by administration of chemical substance, Gene No. 2546” value [1] was “−”. The “Behavior of gene caused by administration of chemical substance, Gene No. 3776” value [1] was “−”, the “Behavior of gene caused by administration of chemical substance, Gene No. 3929” value [1] was “−” and the “Behavior of gene caused by administration of chemical substance, Gene No. 1119” value [1] was “−”. For the same compound, the “Behavior of gene caused by administration of chemical substance, Gene No. 6742” value [1] was “−”, the “Behavior of gene caused by administration of chemical substance, Gene No. 5634” value [1] was “−” and the “Behavior of gene caused by administration of chemical substance, Gene No. 5726” value [1] was “+”. For the same compound, the Liver carcinogenicity (liver) was “Cr+” and the Carcinogenicity (rodent) was “C+”.
